Paper PMC6599804, “N^ɛ-acetyl lysine derivatives with zinc binding groups as novel HDAC inhibitors” (Royal Society Open Science, 2019)
Like-named read-outs stand apart in the source and are kept apart here.

Columns and labels:
[1] = tested on: cellular HDACs in A549 cells; experiment: Western blotting of acetylation levels of histone H3 and α-tubulin in A549 cells; type: cell-based, human; conditions: 50, 100 and 200 µM for 24 h
Protocol: (§1) Therefore, hydroxamic acid 18c was engaged in western blotting analysis to evaluate the acetylation levels of histone H3 and α-tubulin.
(§2) Figure 3. […]
(§3) a Microplate to determine the cell viability. The absorbance was directly proportional to the number of viable cells. All experiments were done in triplicate. […]
(§4) calculate and compare their selective index.
(§5) Respectively, A549 and K562 cells were harvested with three different concentrations of […]
(§6) DMEM with 10% FBS (fetal bovine serum) for 24 hours. DMSO was used as the control. Later the cell pellets were collected by centrifuge at 1000 rpm for 5 minutes and then washed by ice-cold PBS (phosphate-buffered saline) twice. The PBS solution was drained and the cell pellets were re-suspended with ice-cold cell lysate buffer (50 mM Tis-HCl PH=7.4, 150 mM NaCl, 1 mM EDTA, 10% glycerin, 1% tirtion 100 and protease inhibitors cocktail) and Vortex blending five times for 30 seconds each over a period of 30 minutes kept on ice. The samples were later centrifuged at 12,000×g for 10 minutes at 4 °C and the supernatants in each tube were collected and placed in a fresh tube kept on ice. BCA (bicinchoninic acid) assay was used to determine the total protein amount. […]
(§7) were removed by washing and a secondary antibody conjugated to an enzyme, a fluorophore was used for detection. The detected signal from the protein: antibody: antibody complex was […]

[2] = tested on: HDACⅡa; experiment: HDAC subtype selectivity assay with subtype substrate, HDACⅡa; type: biochemical, human; conditions: 1μM; Hela nuclear extract; substrate of corresponding subtype
Description: (§8) against both tumor cells and normal cells, then calculate and compare their selective index.” […]
(§9) of Supporting Information.
(§10) Reponses to Reviewer 2’s comments
(§11) Reviewer 2 is also very positive about the manuscript. We thank the reviewer for the helpful comments and careful reading of the manuscript. Our changes and/or responses are detailed below.
(§12) Comment 1: “Should add some discussion about whether the synthesized compounds intend to be pan- or specific- HDAC inhibitors.”
(§13) S1 of Supporting Information.
(§14) Comment 2: “ The cellular data is just described for the acetylation level of tubulin which is only relevant […]
(§15) And then incubation at 37℃ for 1h, the mixture was stopped by the addition of 50 μL of Buffer B (200mM HCl/300 mM Acetic acid), fluorescence intensity was measured using a microplate reader at excitation and emission wavelengths of 360 nm and 460 nm. The inhibition ratios were calculated from the fluorescence intensity readings of tested wells relative to those of control wells, […]
(§16) The rate of cell survival under the action of test substances was evaluated by an improved MTS assay as previously described. […]
(§17) 48 hours 5ul of MTS reagent solution was added into each well and the cells were incubated for another 4 hours at 37℃ under 5% CO2 environment. The absorbance was measured at 490 nm in […]

[3] = target: T1, HDAC8 (Homo sapiens, UniProt Q9BY41); experiment: HDAC subtype selectivity assay with subtype substrate, HDAC8; type: biochemical; conditions: 1μM; Hela nuclear extract; substrate of corresponding subtype; read-out: HDAC Inhibition (%) HDAC8
T1 construct: Hela nuclear extract; endogenous in cells; host or cells: HeLa nuclear extract
T1 sequence (Q9BY41 1-377): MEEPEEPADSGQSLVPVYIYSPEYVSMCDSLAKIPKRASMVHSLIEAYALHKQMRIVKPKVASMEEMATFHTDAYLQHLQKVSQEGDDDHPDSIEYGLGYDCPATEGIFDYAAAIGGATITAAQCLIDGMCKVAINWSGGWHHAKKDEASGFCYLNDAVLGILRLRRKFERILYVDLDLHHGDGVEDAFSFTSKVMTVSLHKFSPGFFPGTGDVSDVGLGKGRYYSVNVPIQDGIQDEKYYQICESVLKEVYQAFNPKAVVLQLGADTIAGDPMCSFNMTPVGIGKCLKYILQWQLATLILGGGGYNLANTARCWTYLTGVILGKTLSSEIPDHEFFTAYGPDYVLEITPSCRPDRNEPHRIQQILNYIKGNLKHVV

[4] = tested on: K562 cells; experiment: MTS cell proliferation assay, K562; type: cell-based, human
Protocol: (§18) Because of the great anti-tumour potential of HDAC inhibitors, we did the antiproliferative evaluation of 18c against K562 cells, A549 cells and HepG2 cells using MTS assay as previously described. […]
(§19) The rate of cell survival under the action of test substances was evaluated by an improved MTS assay as previously described. In brief, A549 (5000 cells / well) , HepG2 (5000 cells / well), HEK293 (5000 cells / well) and K562 (1 ×10^4 cells/well) cell lines were seeded into 96-well plates in 100 µL medium. After overnight incubation, each well was added with different […]
as §17, §3
(§20) calculate and compare their selective index. […]
(§21) Unbound antibodies

[5] = tested on: HEK293; experiment: MTS cell proliferation assay, HEK293 (non-cancerous kidney cell); type: cell-based
Protocol: as §18, §19, §17, §3, §20, §21

[6] = tested on: HepG2 cells; experiment: MTS cell proliferation assay, HepG2; type: cell-based, human
Protocol: as §18, §19, §17, §3, §20, §21

[7] = tested on: cellular HDACs in K562 cells; experiment: Western blotting of acetylation levels of histone H3 and α-tubulin in K562 cells; type: cell-based, human; conditions: 50, 100 and 200 µM for 24 h
Protocol: as §1, §2, §3, §4, §5, §6, §7

[8] = tested on: HDACs (HeLa nuclear extract); experiment: HDAC deacetylation inhibition assay, HeLa nuclear extract with BOC-Ac-Lys-AMC substrate; type: biochemical, human
Protocol: With these N^ɛ-acetyl lysine derivatives in hand (schemes 1–3), we then did the pilot screening for general HDAC inhibitory activity at a compound's concentration of 100 µM. All tested compounds were subjected to the inhibition assay against the HDAC deacetylation reaction by using a HeLa nuclear extract as a source of HDACs and BOC-Ac-Lys-AMC as a substrate.
HDACS inhibition assay in vitro
In vitro HDACs inhibition assays were conducted as previously described. In brief, 4 μL of […]
(1μL), then fluorogenic substrate Boc-Lys(acetyl)-AMC (100 μM) and Buffer A (50 mM Tis-HCl pH=8.0, 150 mM NaCl, 30 mM KCl, 10 mM MgCl2) were added. After incubation at 37℃ for 1h, […]
as §15
regression analysis of the concentration/inhibition data. All experiments were done in triplicate. […]

[9] = tested on: HDACⅠ; experiment: HDAC subtype selectivity assay with subtype substrate, HDACⅠ; type: biochemical, human; conditions: 1μM; Hela nuclear extract; substrate of corresponding subtype
Description: as §8, §9, §10, §11, §12, §13, §14, §15, §16, §17

[10] = tested on: A549 cells; experiment: MTS cell proliferation assay, A549; type: cell-based, human
Protocol: as §18, §19, §17, §3, §20, §21

[11] = Homo sapiens, MTS assay, 48 hours
[12] = concentration range of 10–500 µM, MTS

O=C(CCCCCCC(=O)NCCCC[C@H](NC(=O)OCc1ccccc1)C(=O)Nc1ccccc1)NO [Compound 18c]
acetylation levels of histone H3 and α-tubulin [1]: dose-dependent increase
HDAC Inhibition (%) HDACⅡa [2]: 16.65±2.690%
inhibition at 1 µM [3]: 38.3 ± 1.22%
IC50 [4, 11]: 41.2 ± 1.73 µM
concentration showing antiproliferative activity comparable to SAHA (1) at 10 µM ([4]; MTS): 50 to 100 µM
antiproliferative activity [4, 12]: dose-dependent manner
IC50 ([5]; Homo sapiens, HEK293, MTS assay, 48 hours, normal cells): > 500 µM
selectivity index (SI) ([5]; normal cells (HEK293) versus tumor cells (K562, A549, HepG2) IC50s): 3.16~12.14
toxicity in non-cancerous kidney cell (HEK293) compared with SAHA (1) ([5]; same concentrations (5 µM and 10 µM), MTS): less toxicity
IC50 [6, 11]: 158 ± 2.2 µM
concentration showing antiproliferative activity comparable to SAHA (1) at 10 µM ([6]; MTS): 200 µM
antiproliferative activity [6, 12]: dose-dependent manner
acetylation levels of histone H3 and α-tubulin [7]: dose-dependent increase
IC50 ([8]; BOC-Ac-Lys-AMC substrate, read-out: IC50 values, HeLa nuclear extract): 0.5 ± 0.21 µM
IC50 ([8]; as restated in the conclusion, read-out: IC50 value): ~0.5 µM
HDAC inhibition (%) ([8]; compound at 100 µM, BOC-Ac-Lys-AMC substrate): 109.2 ± 0.5%
HDAC Inhibition (%) HDACⅠ [9]: 61.06±1.064%
IC50 [10, 11]: 134 ± 2.13 µM
concentration showing antiproliferative activity comparable to SAHA (1) at 10 µM ([10]; MTS): 50 to 100 µM
antiproliferative activity [10, 12]: dose-dependent manner
